Results: patent publication US8895596B2, “Cyclic benzimidazole derivatives useful as anti-diabetic agents” (Merck Sharp & Dohme Corp, priority 2010, dated 2014)

Assays:
[1] = molecular target: recombinant human AMPK complex 1 (containing α1β1γ1) (Homo sapiens, UniProt Q13131+Q9Y478); assay: in vitro AMPK activation assay (AMPKSAMSF); type: biochemical; conditions: recombinant human AMPK complex 1 (α1β1γ1); for EC50: table
Procedure: AMPKSAMSF (in vitro AMPK Activation Assay)
The recombinant human AMPK complex 1 (containing α1β1γ1) was obtained from baculovirus expression system. Recombinant viruses were generated by cotransfection of AMPK/pBacPak9 clones with Baculogold baculovirus DNA (Pharmingen) in spodoptera frugiperda 21 cells according to the manufacturer's instructions. Each round of virus amplification was performed for 5 days in Grace's medium containing 10% serum. Virus that had been subjected to three rounds of amplification was used for all protein production procedures. To express the AMPK complex, sf21 cells were adapted to serum free medium (SF900 II, Invitrogen) by sequential dilution from serum containing stocks into SF900II medium and maintained in shaker flasks at 90 rpm at 27° C. The recombinant AMPK enzyme complex was produced by triple infection, one recombinant virus for each of the subunits, in sf21 cells under serum free conditions. Cells were infected in log phase, 1×10^6 cells/ml, at a multiplicity of infection […] were harvested by centrifugation at 10,000×g for 15 minutes after 72 hours of infection with viruses. The insect cell pellet from 2 liters of culture was resuspended in 50 ml lysis buffer (20 mM Tris-HCl, 50 mM NaCl, 50 mM NaF, 30 mM Na PPi, 0.25 M sucrose, 10 mM ZnCl2, 2 mM DTT, 0.4 mg/ml digitonin) and subjected to two cycles of freeze-thaw lysis in a dry-ice ethanol bath. Insoluble material was removed by centrifugation at 10,000×g and the supernatant was fractionated with use of polyethylene glycol (PEG). The protein fraction precipitating between 2.5 and 6% PEG was used for further purification using a Blue-Sepharose step (Zhou et al, J. Clin. Invest. 108, 1167-1174, 2001).
The in vitro AMPK activation assay is performed in a volume of 30 μl in a 384-well plate. Enzyme reactions were assembled in the microtiter plate by adding 15 μl of 2× enzyme in assay buffer (20 mM HEPES, pH 7.3, 5 mM MgCl2, 3 mM DTT, 0.01% Brij 35 and CamK Kinase, to activate AMPK) to wells which contained either DMSO or compound. The reaction was initiated with the addition of […] substrate mixture containing 200 μM ATP, and 3.0 μM fluorescently labeled SAMS (5-FAM-HMRSAMSGLHLVKRR-COOH) in assay buffer. After 45-minute incubation at 25° C., the reaction was stopped by the addition of 70 μl stop buffer (100 mM HEPES, pH 7.3, 40 mM EDTA, 0.015% Brij 35). Phosphorylated 5-FAM SAMS product is assessed using a Caliper EZ Reader LabChip microfluidics reader. Product conversion is determined by calculating the peak heights of the substrate and product and reporting the product/(product+substrate) peak ratio. The 10-point titration data were expressed as maximum AMP activation. The results were plotted using 4 parameter fit and the inflection point reflecting 50% of the maximum activation was reported as the EC50.

ob/ob and db/db mice = conditions: following 8 weeks of administration; cited from earlier work

Sequence of recombinant human AMPK complex 1 (containing α1β1γ1) (Q13131 whole entry): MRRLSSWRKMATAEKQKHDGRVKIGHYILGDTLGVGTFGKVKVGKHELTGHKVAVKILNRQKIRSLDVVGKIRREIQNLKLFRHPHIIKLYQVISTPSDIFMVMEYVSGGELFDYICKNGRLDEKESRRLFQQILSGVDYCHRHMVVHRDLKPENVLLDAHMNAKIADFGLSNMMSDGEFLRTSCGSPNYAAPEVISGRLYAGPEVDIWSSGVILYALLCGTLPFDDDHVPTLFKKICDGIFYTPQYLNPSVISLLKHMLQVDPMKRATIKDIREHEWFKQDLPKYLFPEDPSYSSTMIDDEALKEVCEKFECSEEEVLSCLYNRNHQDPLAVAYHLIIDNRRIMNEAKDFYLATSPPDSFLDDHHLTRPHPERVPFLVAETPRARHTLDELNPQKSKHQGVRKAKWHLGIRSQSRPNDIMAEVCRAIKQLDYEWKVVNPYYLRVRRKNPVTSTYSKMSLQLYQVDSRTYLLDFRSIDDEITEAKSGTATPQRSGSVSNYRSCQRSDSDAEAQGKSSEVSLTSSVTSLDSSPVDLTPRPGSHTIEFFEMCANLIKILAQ
Sequence of recombinant human AMPK complex 1 (containing α1β1γ1) (Q9Y478 whole entry): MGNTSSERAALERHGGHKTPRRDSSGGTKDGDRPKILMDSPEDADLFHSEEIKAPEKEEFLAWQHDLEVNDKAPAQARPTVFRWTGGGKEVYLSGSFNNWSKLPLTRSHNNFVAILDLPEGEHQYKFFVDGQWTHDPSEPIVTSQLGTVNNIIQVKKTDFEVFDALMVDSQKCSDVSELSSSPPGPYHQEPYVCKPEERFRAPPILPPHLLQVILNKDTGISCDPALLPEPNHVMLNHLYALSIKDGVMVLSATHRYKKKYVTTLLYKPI
Sequence of recombinant human AMPK complex 1 (containing α1β1γ1) (P54619 whole entry partner): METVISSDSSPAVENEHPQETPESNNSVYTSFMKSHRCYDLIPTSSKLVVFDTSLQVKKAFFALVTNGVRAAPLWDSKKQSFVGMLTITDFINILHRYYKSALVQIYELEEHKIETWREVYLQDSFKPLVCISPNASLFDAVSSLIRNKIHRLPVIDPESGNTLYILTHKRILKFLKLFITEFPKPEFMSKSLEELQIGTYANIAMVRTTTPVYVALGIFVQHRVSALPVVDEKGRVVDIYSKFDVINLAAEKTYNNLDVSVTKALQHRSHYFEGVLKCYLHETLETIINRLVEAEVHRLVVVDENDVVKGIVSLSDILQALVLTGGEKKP

SMILES	% Maximum AMP Activation of human AMPK Complex 1 [1] [%]	EC50 [1] [nM]	blood glucose reduction (ob/ob and db/db mice) [%]
O=C(O)C1CCC(Oc2nc3c(F)c(-c4ccc(-c5ccc(C(=O)N6CCC(O)CC6)cc5)cc4)c(F)cc3[nH]2)CC1 (single isomer, unassigned) [Example 20, 4-[(4,6-difluoro-5-{4′-[(4-hydroxypiperidin-1-yl)carbonyl]biphenyl-4-yl}-1H-benzimidazol-2-yl)oxy]cyclohexanecarboxylic acid]	642	10	–
NC(=O)c1ncn([C@@H]2O[C@H](CO)[C@@H](O)[C@H]2O)c1N [AICAR]	–	–	35
O=C(O)C1CCC(Oc2nc3c(F)c(-c4ccc(-c5ccccc5)cc4)c(F)cc3[nH]2)CC1 (stereo not drawn) [Example 15, 4-{[5-(biphenyl-4-yl)-4,6-difluoro-1H-benzimidazol-2-yl]oxy}-cyclohexane carboxylic acid]	653	10	–
O=C(O)C1CCCC(Oc2nc3c(F)c(-c4ccc(-c5ccccc5)cc4)c(F)cc3[nH]2)C1 (stereo not drawn) [Example 16, 3-{[5-(biphenyl-4-yl)-4,6-difluoro-1H-benzimidazol-2-yl]oxy}cyclohexanecarboxylic acid]	617	6	–
O=C(O)C1CCC(Oc2nc3c(F)c(-c4ccc(-c5ccccc5)cc4)c(F)cc3[nH]2)C1 (stereo not drawn) [Example 17, 3-{[5-(biphenyl-4-yl)-4,6-difluoro-1H-benzimidazol-2-yl]oxy}cyclopentanecarboxylic acid]	593	13	–
O=C(O)C1CC(Oc2nc3c(F)c(-c4ccc(-c5ccccc5)cc4)c(F)cc3[nH]2)C1 (stereo not drawn) [Example 18, 3-{[5-(biphenyl-4-yl)-4,6-difluoro-1H-benzimidazol-2-yl]oxy}cyclobutanecarboxylic acid]	538	14	–
O=C(O)C1CC1COc1nc2c(F)c(-c3ccc(-c4ccccc4)cc3)c(F)cc2[nH]1 (stereo not drawn) [Example 19, 2-({[5-(biphenyl-4-yl)-4,6-difluoro-1H-benzimidazol-2-yl]oxy}methyl)cyclopropane-carboxylic acid]	631	17	–
O=C(O)C1CCC(Oc2nc3c(F)c(-c4ccc5c(ccn5C5CC5)c4)c(F)cc3[nH]2)CC1 (stereo not drawn) [Example 21, 4-{[5-(1-Cyclopropyl-1H-indol-5-yl)-4,6-difluoro-1H-benzimidazol-2-yl]oxy}cyclohexanecarboxylic acid]	504	4	–
